Experimental data: patent publication US10724099B2, “Multiplex methods to assay mixed cell populations simultaneously” (The Broad Institute, Inc., priority 2012, dated 2020)

Tests used:
[1] = target: T1, JAK3(JH1domain---catalytic) (Homo sapiens, UniProt P52333); experiment: DiscoveRx KinomeScan binding
T1 construct: JAK3(JH1domain---catalytic); purchased DiscoveRx scanEDGE panel

[2] = target: T2, ERBB4 (Homo sapiens, UniProt Q15303); experiment: DiscoveRx KinomeScan binding
T2 construct: purchased DiscoveRx scanEDGE panel

[3] = target: T3, JAK2(JH1domain---catalytic) (Homo sapiens, UniProt O60674); experiment: DiscoveRx KinomeScan binding
T3 construct: JAK2(JH1domain---catalytic); purchased DiscoveRx scanEDGE panel

[4] = target: T4, AURKA (Homo sapiens, UniProt O14965); experiment: DiscoveRx KinomeScan binding
T4 construct: purchased DiscoveRx (KINOMEscan scanEDGE panel)

[5] = target: T5, CSNK1D (Homo sapiens, UniProt P48730); experiment: DiscoveRx KinomeScan binding
T5 construct: purchased DiscoveRx scanEDGE panel

[6] = target: T6, ULK2 (Homo sapiens, UniProt Q8IYT8); experiment: DiscoveRx KinomeScan binding
T6 construct: purchased DiscoveRx scanEDGE panel

[7] = target: T7, ALK (Homo sapiens, UniProt Q9UM73); experiment: DiscoveRx KinomeScan binding
T7 construct: purchased DiscoveRx (KINOMEscan scanEDGE panel)

[8] = test system: 308 kinases; experiment: Kinase activity profiling, Millipore KinaseProfiler; assay type: biochemical
[9] = target: T8, MAP3K4 (Homo sapiens, UniProt Q9Y6R4); experiment: DiscoveRx KinomeScan binding
T8 construct: purchased DiscoveRx scanEDGE panel (KinomeScan)

[10] = target: T9, IKK---alpha (Homo sapiens, UniProt O15111); experiment: DiscoveRx KinomeScan binding; conditions: Entrez CHUK
T9 construct: purchased DiscoveRx scanEDGE panel

[11] = target: T10, ADCK3 (Homo sapiens, UniProt Q8NI60); experiment: DiscoveRx KinomeScan binding; conditions: Entrez CABC1
T10 construct: purchased DiscoveRx (KINOMEscan scanEDGE panel)

[12] = target: T11, FAK (Homo sapiens, UniProt Q05397); experiment: DiscoveRx KinomeScan binding; conditions: Entrez PTK2
T11 construct: purchased DiscoveRx scanEDGE panel

[13] = target: T12, AKT2 (Homo sapiens, UniProt P31751); experiment: DiscoveRx KinomeScan binding
T12 construct: purchased DiscoveRx (KINOMEscan scanEDGE panel)

[14] = target: T13, EGFR (Homo sapiens, UniProt P00533); experiment: DiscoveRx KinomeScan binding
T13 construct: purchased DiscoveRx scanEDGE panel

[15] = target: T14, ZAP70 (Homo sapiens, UniProt P43403); experiment: DiscoveRx KinomeScan binding
T14 construct: purchased DiscoveRx (KinomeScan scanEDGE panel service)

[16] = target: T15, IGF1R (Homo sapiens, UniProt P08069); experiment: DiscoveRx KinomeScan binding
T15 construct: purchased DiscoveRx scanEDGE panel

[17] = target: T16, KIT(D816V) (Homo sapiens, UniProt P10721, D816V); experiment: DiscoveRx KinomeScan binding
T16 construct: purchased DiscoveRx scanEDGE panel (KinomeScan)

[18] = target: T17, p38---alpha (Homo sapiens, UniProt Q16539); experiment: DiscoveRx KinomeScan binding; conditions: Entrez MAPK14
T17 construct: purchased DiscoveRx scanEDGE panel (KinomeScan)

[19] = target: T18, FGFR3 (Homo sapiens, UniProt P22607); experiment: DiscoveRx KinomeScan binding
T18 construct: purchased DiscoveRx scanEDGE panel

[20] = target: T19, INSR (Homo sapiens, UniProt P06213); experiment: DiscoveRx KinomeScan binding
T19 construct: purchased DiscoveRx scanEDGE panel

[21] = target: T20, ABL1---nonphosphorylated (Homo sapiens, UniProt P00519); experiment: DiscoveRx KinomeScan binding; conditions: Entrez ABL1
T20 construct: purchased DiscoveRx (KINOMEscan scanEDGE panel)

[22] = target: T21, MET (Homo sapiens, UniProt P08581); experiment: DiscoveRx KinomeScan binding
T21 construct: purchased DiscoveRx scanEDGE panel (KinomeScan)

[23] = target: T22, LKB1 (Homo sapiens, UniProt Q15831); experiment: DiscoveRx KinomeScan binding; conditions: Entrez STK11
T22 construct: purchased DiscoveRx scanEDGE panel (KinomeScan)

[24] = test system: 102 barcoded cell lines; experiment: PRISM, 102 barcoded cell lines in pools; assay type: cell-based; conditions: 102 cell lines
Text: PRISM was used to identify novel anticancer compounds, using a set of 102 barcoded cell lines including 90 non-small cell lung adenocarcinoma lines (and 2 duplicate lines with different barcode labels) and 10 remaining cell lines representing other tissues of origins.
Using the AUC for each cell line's response to BRD-7880, a PRISM “activity profile” was created to query whether the sensitivity pattern of BRD-7880 across the cell line panel was related to any of the tool compounds assayed in parallel. […] Thus it was hypothesized that BRD-7880 was functioning as an inhibitor of aurora kinases.

[25] = target: T23, IKK---beta (Homo sapiens, UniProt O14920); experiment: DiscoveRx KinomeScan binding; conditions: Entrez IKBKB
T23 construct: purchased DiscoveRx scanEDGE panel

[26] = target: T24, PAK2 (Homo sapiens, UniProt Q13177); experiment: DiscoveRx KinomeScan binding
T24 construct: purchased DiscoveRx scanEDGE panel (KinomeScan)

[27] = target: T25, PIM1 (Homo sapiens, UniProt P11309); experiment: DiscoveRx KinomeScan binding
T25 construct: purchased DiscoveRx scanEDGE panel

[28] = target: T26, RIOK2 (Homo sapiens, UniProt Q9BVS4); experiment: DiscoveRx KinomeScan binding
T26 construct: purchased DiscoveRx scanEDGE panel

[29] = target: T27, MLK1 (Homo sapiens, UniProt P80192); experiment: DiscoveRx KinomeScan binding; conditions: Entrez MAP3K9
T27 construct: purchased DiscoveRx scanEDGE panel (KinomeScan)

[30] = target: T28, PRKCE (Homo sapiens, UniProt Q02156); experiment: DiscoveRx KinomeScan binding
T28 construct: purchased DiscoveRx scanEDGE panel

[31] = target: T29, MKNK2 (Homo sapiens, UniProt Q9HBH9); experiment: DiscoveRx KinomeScan binding
T29 construct: purchased DiscoveRx scanEDGE panel (KinomeScan)

[32] = test system: HCT-116 cells; experiment: Western blot phosphoserine 10-histone H3; assay type: cell-based; conditions: 10 μM
Procedure: Finally, HCT-116 cells were treated with 10 μM of DMSO, barasertib, GSK1070916, MLN8054, BRD-7880, or tozasertib. Cells lysates were probed on Western blot using antibodies (diluted 1:1000) to histone H3 (Abcam cat. no. 24834), phosphoserine 10-histone H3 (Cell Signaling Technology cat no. 3377SS), aurora kinase B (Millipore cat. no. 04-1036), or beta-actin (Santa Cruz Biotechnology cat. no. sc-47778) and detected using a LI-COR Odyssey analyzer.

T4 sequence (O14965 whole entry): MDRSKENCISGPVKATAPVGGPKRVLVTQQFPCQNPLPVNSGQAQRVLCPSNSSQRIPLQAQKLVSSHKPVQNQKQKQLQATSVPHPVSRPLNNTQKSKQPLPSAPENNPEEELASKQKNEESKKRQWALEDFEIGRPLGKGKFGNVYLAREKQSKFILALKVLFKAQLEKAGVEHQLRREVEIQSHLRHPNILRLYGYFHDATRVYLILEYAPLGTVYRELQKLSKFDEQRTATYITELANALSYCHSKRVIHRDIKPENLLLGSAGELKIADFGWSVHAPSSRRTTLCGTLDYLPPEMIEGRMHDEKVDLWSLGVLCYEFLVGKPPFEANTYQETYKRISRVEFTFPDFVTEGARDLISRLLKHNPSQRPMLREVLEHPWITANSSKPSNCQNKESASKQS
T10 sequence (Q8NI60 163-647): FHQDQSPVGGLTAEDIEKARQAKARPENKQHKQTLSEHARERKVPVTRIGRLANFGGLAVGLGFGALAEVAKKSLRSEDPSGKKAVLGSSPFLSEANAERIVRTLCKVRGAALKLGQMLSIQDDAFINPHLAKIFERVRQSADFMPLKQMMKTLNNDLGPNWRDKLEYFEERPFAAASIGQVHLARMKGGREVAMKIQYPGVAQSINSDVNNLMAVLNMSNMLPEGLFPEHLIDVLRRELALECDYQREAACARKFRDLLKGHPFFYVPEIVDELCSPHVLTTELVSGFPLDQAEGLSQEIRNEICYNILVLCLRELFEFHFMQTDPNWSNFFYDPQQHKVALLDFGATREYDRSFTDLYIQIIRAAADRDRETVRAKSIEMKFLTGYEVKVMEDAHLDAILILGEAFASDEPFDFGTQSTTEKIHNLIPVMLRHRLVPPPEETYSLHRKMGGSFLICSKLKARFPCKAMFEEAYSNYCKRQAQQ
T18 sequence (P22607 23-806): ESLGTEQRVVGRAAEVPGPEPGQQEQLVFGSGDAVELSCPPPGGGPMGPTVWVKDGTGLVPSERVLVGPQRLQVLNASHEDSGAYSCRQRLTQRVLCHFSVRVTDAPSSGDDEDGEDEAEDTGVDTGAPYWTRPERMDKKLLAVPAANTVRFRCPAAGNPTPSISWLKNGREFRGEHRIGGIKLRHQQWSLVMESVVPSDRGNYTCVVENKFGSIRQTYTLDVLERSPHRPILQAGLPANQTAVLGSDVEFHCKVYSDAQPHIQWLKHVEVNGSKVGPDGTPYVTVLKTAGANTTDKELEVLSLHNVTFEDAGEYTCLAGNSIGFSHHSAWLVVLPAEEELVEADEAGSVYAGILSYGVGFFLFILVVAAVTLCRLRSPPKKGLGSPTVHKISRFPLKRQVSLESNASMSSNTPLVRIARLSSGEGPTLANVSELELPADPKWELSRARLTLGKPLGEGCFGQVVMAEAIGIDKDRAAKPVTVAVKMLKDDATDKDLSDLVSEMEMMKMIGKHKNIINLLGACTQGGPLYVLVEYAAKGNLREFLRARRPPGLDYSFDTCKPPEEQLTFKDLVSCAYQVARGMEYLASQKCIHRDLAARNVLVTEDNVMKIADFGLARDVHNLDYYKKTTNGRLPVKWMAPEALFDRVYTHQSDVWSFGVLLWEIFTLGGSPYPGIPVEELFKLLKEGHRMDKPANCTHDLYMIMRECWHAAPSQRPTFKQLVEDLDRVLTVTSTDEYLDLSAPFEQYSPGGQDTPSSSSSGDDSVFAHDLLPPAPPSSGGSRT
T26 sequence (Q9BVS4 whole entry): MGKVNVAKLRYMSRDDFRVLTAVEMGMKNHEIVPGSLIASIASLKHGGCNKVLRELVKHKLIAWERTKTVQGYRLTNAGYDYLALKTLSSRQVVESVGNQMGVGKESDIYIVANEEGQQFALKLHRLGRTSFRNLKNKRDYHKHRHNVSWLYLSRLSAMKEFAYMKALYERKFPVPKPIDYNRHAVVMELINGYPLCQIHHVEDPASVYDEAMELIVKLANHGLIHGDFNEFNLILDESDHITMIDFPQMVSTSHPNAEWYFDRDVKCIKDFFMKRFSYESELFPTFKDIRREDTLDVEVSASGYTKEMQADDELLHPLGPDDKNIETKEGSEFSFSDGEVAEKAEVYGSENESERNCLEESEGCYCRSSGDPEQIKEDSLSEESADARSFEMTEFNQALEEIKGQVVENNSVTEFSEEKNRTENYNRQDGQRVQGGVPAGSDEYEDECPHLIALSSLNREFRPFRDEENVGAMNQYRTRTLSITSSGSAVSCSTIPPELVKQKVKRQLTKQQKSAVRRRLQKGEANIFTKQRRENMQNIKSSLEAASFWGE
T8 sequence (Q9Y6R4 whole entry): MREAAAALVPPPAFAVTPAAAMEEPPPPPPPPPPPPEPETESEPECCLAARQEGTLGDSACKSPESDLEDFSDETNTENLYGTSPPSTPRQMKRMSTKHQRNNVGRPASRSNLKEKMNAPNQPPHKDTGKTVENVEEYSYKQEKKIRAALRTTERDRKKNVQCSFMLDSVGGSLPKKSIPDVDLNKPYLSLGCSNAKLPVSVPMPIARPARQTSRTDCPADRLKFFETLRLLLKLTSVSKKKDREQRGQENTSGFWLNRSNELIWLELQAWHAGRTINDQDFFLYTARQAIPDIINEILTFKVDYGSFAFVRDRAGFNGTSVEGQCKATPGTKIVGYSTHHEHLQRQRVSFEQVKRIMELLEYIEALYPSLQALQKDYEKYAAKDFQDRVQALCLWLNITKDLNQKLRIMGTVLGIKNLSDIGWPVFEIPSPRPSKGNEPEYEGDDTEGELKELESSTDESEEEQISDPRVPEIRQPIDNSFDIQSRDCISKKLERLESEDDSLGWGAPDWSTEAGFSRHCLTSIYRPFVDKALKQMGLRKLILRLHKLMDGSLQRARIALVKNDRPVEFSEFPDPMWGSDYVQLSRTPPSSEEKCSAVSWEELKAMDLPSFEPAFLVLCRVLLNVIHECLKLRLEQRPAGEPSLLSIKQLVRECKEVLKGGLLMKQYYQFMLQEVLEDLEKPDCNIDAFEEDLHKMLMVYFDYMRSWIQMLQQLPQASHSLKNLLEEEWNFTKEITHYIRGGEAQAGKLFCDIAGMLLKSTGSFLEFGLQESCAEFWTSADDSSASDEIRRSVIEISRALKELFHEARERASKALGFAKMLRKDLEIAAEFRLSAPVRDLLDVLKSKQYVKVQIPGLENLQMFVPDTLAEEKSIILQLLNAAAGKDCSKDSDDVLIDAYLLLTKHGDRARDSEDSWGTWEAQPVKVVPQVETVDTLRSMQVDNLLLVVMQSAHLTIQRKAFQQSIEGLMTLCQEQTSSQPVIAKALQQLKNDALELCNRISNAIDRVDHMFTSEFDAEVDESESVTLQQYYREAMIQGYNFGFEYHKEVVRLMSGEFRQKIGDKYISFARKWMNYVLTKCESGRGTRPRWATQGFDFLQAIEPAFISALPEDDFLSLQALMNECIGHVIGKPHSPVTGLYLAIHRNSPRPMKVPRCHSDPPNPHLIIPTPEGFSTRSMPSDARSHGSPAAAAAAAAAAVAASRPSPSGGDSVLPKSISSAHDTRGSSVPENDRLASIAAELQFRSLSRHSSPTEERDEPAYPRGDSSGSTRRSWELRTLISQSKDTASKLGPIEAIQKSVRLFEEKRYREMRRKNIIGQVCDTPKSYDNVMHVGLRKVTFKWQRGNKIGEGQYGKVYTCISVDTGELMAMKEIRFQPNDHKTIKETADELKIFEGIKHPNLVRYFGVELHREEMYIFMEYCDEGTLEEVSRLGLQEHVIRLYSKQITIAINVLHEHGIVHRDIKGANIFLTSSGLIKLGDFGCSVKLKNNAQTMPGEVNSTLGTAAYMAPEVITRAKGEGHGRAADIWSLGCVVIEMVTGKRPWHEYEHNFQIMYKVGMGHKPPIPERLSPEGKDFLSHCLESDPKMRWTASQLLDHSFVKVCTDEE
T13 sequence (P00533 25-1210): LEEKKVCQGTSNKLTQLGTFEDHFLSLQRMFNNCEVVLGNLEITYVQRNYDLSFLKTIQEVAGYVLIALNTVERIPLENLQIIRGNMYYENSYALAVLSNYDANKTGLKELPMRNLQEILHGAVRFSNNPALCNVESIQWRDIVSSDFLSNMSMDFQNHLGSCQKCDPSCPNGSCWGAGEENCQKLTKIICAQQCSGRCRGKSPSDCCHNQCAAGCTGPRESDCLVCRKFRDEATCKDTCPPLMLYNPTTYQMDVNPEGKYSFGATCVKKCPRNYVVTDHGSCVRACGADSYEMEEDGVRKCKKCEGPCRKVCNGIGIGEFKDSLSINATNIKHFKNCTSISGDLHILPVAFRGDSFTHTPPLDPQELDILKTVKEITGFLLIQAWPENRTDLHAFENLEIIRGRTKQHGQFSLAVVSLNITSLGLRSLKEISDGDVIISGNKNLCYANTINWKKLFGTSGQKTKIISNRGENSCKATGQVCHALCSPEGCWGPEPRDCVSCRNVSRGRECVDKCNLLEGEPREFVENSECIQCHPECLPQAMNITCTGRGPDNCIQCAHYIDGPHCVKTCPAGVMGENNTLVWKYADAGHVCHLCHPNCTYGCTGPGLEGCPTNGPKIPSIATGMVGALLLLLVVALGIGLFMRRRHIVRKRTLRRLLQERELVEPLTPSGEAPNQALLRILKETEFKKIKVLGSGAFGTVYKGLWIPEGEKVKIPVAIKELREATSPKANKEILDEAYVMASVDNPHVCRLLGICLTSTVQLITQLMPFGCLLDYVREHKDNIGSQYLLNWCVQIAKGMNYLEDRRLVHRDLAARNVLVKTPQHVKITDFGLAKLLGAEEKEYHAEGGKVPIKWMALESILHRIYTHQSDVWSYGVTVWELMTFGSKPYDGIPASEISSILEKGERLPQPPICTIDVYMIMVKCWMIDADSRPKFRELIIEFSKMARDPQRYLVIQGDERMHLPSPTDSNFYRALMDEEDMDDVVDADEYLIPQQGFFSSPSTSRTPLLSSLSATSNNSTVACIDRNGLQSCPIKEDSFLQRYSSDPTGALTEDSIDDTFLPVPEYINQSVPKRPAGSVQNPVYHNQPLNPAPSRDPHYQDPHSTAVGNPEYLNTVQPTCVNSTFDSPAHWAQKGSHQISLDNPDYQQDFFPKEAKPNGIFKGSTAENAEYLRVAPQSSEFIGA

COc1ccc(NC(=O)Nc2ccc3c(c2)C(=O)N([C@@H](C)CO)C[C@H](C)[C@H](CN(C)Cc2ccc4c(c2)OCO4)O3)cc1 [BRD-7880]
Percent Control [1]: 66%
Percent Control [2]: 97%
Percent Control [3]: 98%
binding to aurora kinase A [4]: 25 % of control
Percent Control ([4]; AURKA): 22%
Percent Control [5]: 100%
Percent Control [6]: 100%
Percent Control [7]: 100%
significant inhibition (defined as activity<25% control) across 308 kinases [8]: inhibited aurora kinase B
Percent Control [9]: 86%
Percent Control [10]: 58%
Percent Control [11]: 84%
Percent Control [12]: 100%
Percent Control [13]: 80%
Percent Control [14]: 66%
Percent Control [15]: 93%
Percent Control [16]: 88%
Percent Control [17]: 72%
Percent Control [18]: 93%
Percent Control [19]: 56%
Percent Control [20]: 36%
Percent Control [21]: 100%
Percent Control [22]: 100%
Percent Control [23]: 39%
cell lines with AUC<0.5 (selectivity) ([24]; 8 doses 0.25-32 μM): 12 of 102
EC50 [24]: ~1000 nM
Percent Control [25]: 68%
Percent Control [26]: 69%
Percent Control [27]: 87%
Percent Control [28]: 38%
Percent Control [29]: 91%
Percent Control [30]: 100%
Percent Control [31]: 77%
phosphorylation of serine 10 on histone H3 [32]: decrease phosphorylation of serine 10 on histone H3
